Measurements as given in patent US20220331303A1, “USE OF AN OREXIN 2 RECEPTOR AGONIST FOR THE TREATMENT OF EXCESSIVE SLEEPINESS” (Takeda Pharmaceutical Company Limited, priority 2019, published 2022).

Assay: Plasma PK of Compound A after a single 9-hour IV infusion in sleep-deprived healthy male subjects
Assay type: in vivo, human
Method: This was a phase 1b, single-center, randomized, double-blind, double-dummy, placebo- and active-controlled, 4-period Williams design crossover study to evaluate the PK, PD, and safety of Compound A in sleep-deprived healthy volunteers. Compound A was administered as a 9-hour IV infusion.
Healthy adult male subjects aged 18 to 40 years, inclusive, who satisfied the inclusion and exclusion criteria were enrolled in the trial. On Day 1 of treatment period 1, eligible subjects were equally randomized to 4 treatment sequence groups (sequence 1 to 4) which defined the order of administration for Compound A LD, Compound A HD (both delivered as a 9-hour IV infusion), modafinil 300 mg, and placebo.
During the day before dosing on Day 1, participants were administered the KSS at scheduled timepoints. A practice MWT session was performed on Day 1 treatment period 1 (only once during the entire study) to familiarize subjects with the procedures. Study drug was administered in the clinic in the evening on Day 1 of each treatment period. Subjects underwent the MWT and KSS at specified timepoints after the start of the infusion. Subjects were required to stay awake between the MWT tests. Following completion of the IV infusion on Day 2, subjects underwent an additional MWT test. When the final MWT test and cognitive testing were completed, subjects were allowed to sleep (recovery sleep) for approximately 6 hours. PSG recording was collected during this time. Subjects were discharged from the unit after completion on Day 2 with continuing actigraphy upon discharge (to begin on Day −6 before the next treatment period). The interval between each subsequent treatment period was at least 7 days to ensure that the subject's circadian rhythm had returned to a normal cycle. Subject's vital signs, including BP, were monitored during the dosing and testing period. Blood samples for determination of Compound A plasma concentrations were collected at specified timepoints on Days 1 and 2 of each treatment period. Subjects completed the Columbia-Suicide Severity Rating Scale (C-SSRS) during screening, before study drug administration, and before discharge on Day 2 of each treatment period.
Plasma concentrations were tabulated, and descriptive statistics were calculated for each Compound A dose level and are listed in Tables 3-6 for Compound A. The mean plasma concentration versus time plots for Compound A are shown in FIG. 1.

[1] = 44 mg 9-h IV infusion, 0.17 h post infusion end
[2] = 44 mg 9-h IV infusion, 0.5 h post infusion end
[3] = 44 mg 9-h IV infusion, 1 h post infusion end
[4] = 44 mg 9-h IV infusion, 2 h post infusion end
[5] = 44 mg 9-h IV infusion, 3 h post infusion end
[6] = 44 mg 9-h IV infusion, 4 h post infusion end
[7] = 44 mg 9-h IV infusion, 6 h post infusion end
[8] = 44 mg 9-h IV infusion, 9 h post infusion end
[9] = 44 mg 9-h IV infusion, Discharge (post infusion end)
[10] = 44 mg [LD] single 9-hour IV infusion
[11] = 112 mg 9-h IV infusion, 0.17 h post infusion end
[12] = 112 mg 9-h IV infusion, 0.5 h post infusion end
[13] = 112 mg 9-h IV infusion, 1 h post infusion end
[14] = 112 mg 9-h IV infusion, 1 h post infusion start
[15] = 112 mg 9-h IV infusion, 2 h post infusion end
[16] = 112 mg 9-h IV infusion, 2 h post infusion start
[17] = 112 mg 9-h IV infusion, 4 h post infusion start
[18] = 112 mg 9-h IV infusion, 6 h post infusion start
[19] = 112 mg 9-h IV infusion, 9 h post infusion start
[20] = 112 mg 9-h IV infusion, Discharge (post infusion end)
[21] = 112 mg [HD] single 9-hour IV infusion

COC(=O)N1CCC[C@H](NS(C)(=O)=O)[C@@H]1CO[C@H]1CC[C@@H](c2ccccc2)CC1 [Compound A, methyl (2R,3S)-3-((methylsulfonyl)amino)-2-(((cis-4-phenylcyclohexyl)oxy)methyl)piperidine-1-carboxylate]
Plasma Concentration Mean [1]: 76.86 ng/mL
Plasma concentration (GM) [1]: 76.07 ng/mL
Plasma concentration (Median) [1]: 74.80 ng/mL
Plasma Concentration Mean [2]: 50.78 ng/mL
Plasma concentration (GM) [2]: 49.49 ng/mL
Plasma concentration (Median) [2]: 49.10 ng/mL
Plasma Concentration Mean [3]: 40.73 ng/mL
Plasma concentration (GM) [3]: 39.05 ng/mL
Plasma concentration (Median) [3]: 38.15 ng/mL
Plasma Concentration Mean [4]: 22.23 ng/mL
Plasma concentration (GM) [4]: 21.44 ng/mL
Plasma concentration (Median) [4]: 21.00 ng/mL
Plasma Concentration Mean [5]: 20.67 ng/mL
Plasma concentration (GM) [5]: 19.74 ng/mL
Plasma concentration (Median) [5]: 20.35 ng/mL
Plasma Concentration Mean [6]: 16.28 ng/mL
Plasma concentration (GM) [6]: 15.56 ng/mL
Plasma concentration (Median) [6]: 17.25 ng/mL
Plasma Concentration Mean [7]: 10.32 ng/mL
Plasma concentration (GM) [7]: 9.85 ng/mL
Plasma concentration (Median) [7]: 10.75 ng/mL
Plasma Concentration Mean [8]: 5.56 ng/mL
Plasma concentration (GM) [8]: 5.06 ng/mL
Plasma concentration (Median) [8]: 5.06 ng/mL
Plasma Concentration Mean [9]: 4.95 ng/mL
Plasma concentration (GM) [9]: 4.60 ng/mL
Plasma concentration (Median) [9]: 4.78 ng/mL
Ceoi (GM) [10]: 102.5 ng/mL
Ceoi (Mean) [10]: 103.4 ng/mL
Ceoi (Median) [10]: 101.0 ng/mL
t1/2z (Mean) [10]: 3.134 h
t1/2z (Median) [10]: 3.020 h
Plasma Concentration Mean [11]: 196.83 ng/mL
Plasma concentration (Median) [11]: 197.50 ng/mL
Plasma Concentration Mean [12]: 124.21 ng/mL
Plasma concentration (Median) [12]: 121.50 ng/mL
Plasma Concentration Mean [13]: 100.48 ng/mL
Plasma concentration (Median) [13]: 96.90 ng/mL
Plasma Concentration Mean [14]: 162.56 ng/mL
Plasma concentration (GM) [14]: 155.56 ng/mL
Plasma concentration (Median) [14]: 151.00 ng/mL
Plasma Concentration Mean [15]: 58.92 ng/mL
Plasma concentration (Median) [15]: 61.40 ng/mL
Plasma Concentration Mean [16]: 187.06 ng/mL
Plasma concentration (GM) [16]: 185.71 ng/mL
Plasma concentration (Median) [16]: 179.50 ng/mL
Plasma Concentration Mean (112 mg 9-h IV infusion, 3 h post infusion end): 53.01 ng/mL
Plasma Concentration Mean (112 mg 9-h IV infusion, 4 h post infusion end): 41.98 ng/mL
Plasma Concentration Mean [17]: 217.61 ng/mL
Plasma concentration (GM) [17]: 216.56 ng/mL
Plasma concentration (Median) [17]: 210.00 ng/mL
Plasma Concentration Mean (112 mg 9-h IV infusion, 6 h post infusion end): 24.24 ng/mL
Plasma Concentration Mean [18]: 234.06 ng/mL
Plasma concentration (GM) [18]: 232.92 ng/mL
Plasma concentration (Median) [18]: 229.50 ng/mL
Plasma Concentration Mean (112 mg 9-h IV infusion, 9 h post infusion end): 13.78 ng/mL
Plasma Concentration Mean [19]: 253.39 ng/mL
Plasma concentration (GM) [19]: 250.96 ng/mL
Plasma concentration (Median) [19]: 252.50 ng/mL
Plasma Concentration Mean [20]: 13.01 ng/mL
Plasma concentration (GM) [20]: 12.09 ng/mL
Plasma concentration (Median) [20]: 11.50 ng/mL
Ceoi (GM) [21]: 251.0 ng/mL
Ceoi (Mean) [21]: 253.4 ng/mL
Ceoi (Median) [21]: 252.5 ng/mL
t1/2z (Mean) [21]: 3.252 h
t1/2z (Median) [21]: 3.165 h
